Data on 15 compounds can be found in patent publication US12240862B2, “Inhibitors of peptidylarginine deiminases” (Gilead Sciences, Inc., priority 2020, dated 2025).

Broadly, the IC50 is the concentration at which inhibition is half-maximal.

T1 sequence (Q9UM07 2-663): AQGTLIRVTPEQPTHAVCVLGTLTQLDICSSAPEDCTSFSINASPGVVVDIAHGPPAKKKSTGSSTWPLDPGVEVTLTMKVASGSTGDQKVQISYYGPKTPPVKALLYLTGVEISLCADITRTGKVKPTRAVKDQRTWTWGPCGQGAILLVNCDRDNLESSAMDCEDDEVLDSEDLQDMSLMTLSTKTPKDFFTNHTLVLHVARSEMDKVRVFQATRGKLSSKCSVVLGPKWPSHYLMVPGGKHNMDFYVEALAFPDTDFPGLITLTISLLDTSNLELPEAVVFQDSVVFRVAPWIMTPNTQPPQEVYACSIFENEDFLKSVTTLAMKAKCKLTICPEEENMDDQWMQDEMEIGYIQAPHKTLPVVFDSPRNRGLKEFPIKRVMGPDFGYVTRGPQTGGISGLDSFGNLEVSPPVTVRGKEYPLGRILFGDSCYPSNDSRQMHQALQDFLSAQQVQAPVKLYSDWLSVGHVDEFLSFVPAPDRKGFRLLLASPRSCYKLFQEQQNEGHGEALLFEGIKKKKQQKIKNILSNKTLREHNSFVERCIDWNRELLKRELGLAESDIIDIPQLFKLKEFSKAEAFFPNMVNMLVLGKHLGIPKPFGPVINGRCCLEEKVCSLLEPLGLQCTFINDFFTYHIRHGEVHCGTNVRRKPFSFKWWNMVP

This assay concerns the target T1, human PAD4 (Homo sapiens, UniProt Q9UM07).
T1 construct: human PAD4 (NM_012387), A2P663, was PCR amplified; His-SUMO (N, cleaved yes); made in house; host or cells: E. coli BL21(DE3)
The assay is described as follows: In vitro PAD4 BAEE biochemical assay. The conditions noted are these: human PAD4, BAEE substrate; 5 nM PAD4, 2 mM calcium chloride, 3 mM BAEE; geometric mean of multiple experiments. The method in brief:
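Ammonia release from BAEE deimination monitored by o-phthalaldehyde amine coupling (1 h, 25 °C) after EDTA stop. Final conditions: 5 nM tag-free recombinant human PAD4 (E. coli), 2 mM CaCl2, 3 mM BAEE, pH 7.6 MOPS with DTT; 30 min compound preincubation, then 2 h reaction at 25 °C.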
As for `CCC(CC(=O)N1CCCC1)c1ccc2cc(-c3nc4cc(C(=O)N5[C@H]6CC[C@@H]5[C@H](N)C6)cc(OC)n4c3C)n(CC3CC3)c2n1` (stereo partly drawn) [Example 540, 3-[2-[7-[(1~{R},2~{R}, 4~{S})-2-amino-7-azabicyclo[2.2.1]heptane-7-carbonyl]-5-methoxy-3-methylimidazo[1,2-a]pyridin-2-yl]-1-(cyclopropylmethyl)pyrrolo[2,3-b]pyridin-6-yl]-1-pyrrolidin-1-ylpentan-1-one], the IC50 worked out at 102 nM.
Then `COc1cc(C(=O)N2[C@H]3CC[C@@H]2[C@H](N)C3)cc2nc(-c3cc4ccc(OCc5ccccc5)nc4n3CC3CC3)c(C)n12` [Example 627, [(1~{R},2~{R},4~{S})-2-amino-7-azabicyclo [2.2.1]heptan-7-yl]-[2-[1-(cyclopropylmethyl)-6-phenylmethoxypyrrolo[2,3-b]pyridin-2-yl]-5-methoxy-3-methylimidazo[1,2-a]pyridin-7-yl]methanone], with 3360 nM.
The figure for `COc1cc(C(=O)N2C[C@@H]3CCN[C@@H]3C2)cc2nc(-c3cc4ccc([C@@H](C)NC(=O)C56CC(F)(C5)C6)nc4n3CC3CC3)c(C)n12` [Example 20, ~{N}-[(1~{R})-1-[2-[7-[(3~{a}~{S}, 6~{a}~{S})-2,3,3~{a}, 4,6,6~{a}-hexahydro-1~{H}-pyrrolo[3,4-b]pyrrole-5-carbonyl]-5-methoxy-3-methylimidazo[1,2-a]pyridin-2-yl]-1-(cyclopropylmethyl)pyrrolo[2,3-b]pyridin-6-yl]ethyl]-3-fluorobicyclo[1.1.1] pentane-1-carboxamide] is 3860 nM; for `CCOC(=O)CC(C)c1ccc2cc(-c3nc4cc(C(=O)N5[C@H]6CC[C@@H]5[C@H](N)C6)cc(OC)n4c3C)n(CC3CC3)c2n1` (stereo partly drawn) [Example 559, ethyl 3-[2-[7-[(1~{R}, 2~{R},4~{S})-2-amino-7-azabicyclo[2.2.1]heptane-7-carbonyl]-5-methoxy-3-methylimidazo[1,2-a]pyridin-2-yl]-1-(cyclopropylmethyl)pyrrolo[2,3-b]pyridin-6-yl]butanoate] it is 96.5 nM; for `COc1cc(C(=O)N2CCC[C@@H](N)C2)cc2nc(-c3cc4ccc([C@@H](C)NC(=O)C56CC(F)(C5)C6)nc4n3CC3CC3)c(C3CC3)n12` [Example 145, ~{N}-[(1~{R})-1-[2-[7-[(3~{R})-3-aminopiperidine-1-carbonyl]-3-cyclopropyl-5-methoxyimidazo [1,2-a]pyridin-2-yl]-1-(cyclopropylmethyl)pyrrolo [2,3-b]pyridin-6-yl]ethyl]-3-fluorobicyclo[1.1.1]pentane-1-carboxamide] it is 215 nM.
For `COc1cc(C(=O)N2CCC[C@@H](N)C2)cc2nc(-c3cc4ccc([C@@H](C)N(C)C(=O)c5ccccc5)nc4n3CC3CC3)c(C)n12` [Example 186, ~{N}-[(1~{R})-1-[2-[7-[(3~{R})-3-aminopiperidine-1-carbonyl]-5-methoxy-3-methylimidazo [1,2-a]pyridin-2-yl]-1-(cyclopropylmethyl)pyrrolo [2,3-b]pyridin-6-yl]ethyl]-~{N}-methylbenzamide], the IC50 turned out to be 274 nM.
For the compound `CS(=O)(=O)N(c1ccc2cc(-c3nc4cc(C(=O)N5CCC[C@@H](N)C5)c(F)cn4c3C3CC3)n(CC3CC3)c2n1)C(F)F` [Example 392, ~{N}-[2-[7-[(3~{R})-3-aminopiperidine-1-carbonyl]-3-cyclopropyl-6-fluoroimidazo [1,2-a]pyridin-2-yl]-1-(cyclopropylmethyl)pyrrolo [2,3-b]pyridin-6-yl]-~{N}-(difluoromethyl) methanesulfonamide], the IC50 stood at 148 nM.
The figure for `COc1cc(C(=O)N2[C@H]3CC[C@@H]2[C@H](N)C3)cc2nc(-c3cc4ccc(C5=CC(=O)N(C)CC5)nc4n3CC3CC3)c(C)n12` [Example 558, 4-[2-[7-[(1~{R},2~{R}, 4~{S})-2-amino-7-azabicyclo[2.2.1]heptane-7-carbonyl]-5-methoxy-3-methylimidazo[1,2-a]pyridin-2-yl]-1-(cyclopropylmethyl)pyrrolo [2,3-b]pyridin-6-yl]-1-methyl-2,3-dihydropyridin-6-one] is 220 nM; for `COc1cc(C(=O)N[C@@H]2CC[C@@H](C)NC2)cc2nc(-c3cc4ccc(N(C(F)F)S(C)(=O)=O)nc4n3CC3CC3)c(C)n12` [Example 314, 2-[1-(cyclopropylmethyl)-6-[difluoromethyl (methylsulfonyl)amino]pyrrolo[2,3-b]pyridin-2-yl]-5-methoxy-3-methyl-~{N}-[(3~{R},6~{R})-6-methylpiperidin-3-yl]imidazo[1,2-a] pyridine-7-carboxamide] it is 38700 nM.
`COc1cc(C(=O)N2[C@H]3CC[C@@H]2[C@H](N)C3)cc2nc(-c3cc4ccc(N[C@H](C)C(F)(F)F)nc4n3CC3CC3)c(C)n12` [Example 449]: the IC50 was determined as 6670 nM.
In the case of `COc1cc(C(=O)N2[C@H]3CC[C@@H]2[C@H](N)C3)cc2nc(-c3cc4ccc([C@@H](C)NC(=O)c5cccc(C#N)c5)nc4n3CC3CC3)c(C)n12` [Example 122, ~{N}-[(1~{R})-1-[2-[7-[(1~{R},2~{R},4~{S})-2-amino-7-azabicyclo[2.2.1]heptane-7-carbonyl]-5-methoxy-3-methylimidazo [1,2-a]pyridin-2-yl]-1-(cyclopropylmethyl)pyrrolo [2,3-b]pyridin-6-yl]ethyl]-3-cyanobenzamide], the IC50 came out at 78.5 nM.
The figure for `COc1cc(C(=O)N2[C@H]3CC[C@@H]2[C@H](N)C3)cc2nc(-c3cc4ccc(N5Cc6ccccc6CS5(=O)=O)nc4n3CC3CC3)c(C)n12` [Example 461, [(1~{R},2~{R},4~{S})-2-amino-7-azabicyclo [2.2.1]heptan-7-yl]-[2-[1-(cyclopropylmethyl)-6-(2,2-dioxo-1,4-dihydro-2$l^6,3-benzothiazin-3-yl)pyrrolo[2,3-b]pyridin-2-yl]-5-methoxy-3-methylimidazo[1,2-a]pyridin-7-yl]methanone] is 294 nM; for “3-[(1~{R})-1-[2-[7- [(1~{R},2~{R},4~{S})-2- amino-7- azabicyclo[2.2.1]heptane-7- carbonyl]-3-cyclopropyl-5- methoxyimidazo [1,2-a]pyridin-2-yl]-1- (cyclopropylmethyl)pyrrolo [2,3-b]pyridin-6-yl]ethyl]-1- [(6-methoxypyridin-2- yl)methyl]-1-methylurea [Example 219]” it is 124 nM; for `COc1cc(C(=O)N2[C@H]3CC[C@@H]2[C@H](N)C3)cc2nc(-c3cc4ccc([C@@H](C)NC(=O)CCN5C(=O)NC(C)(C)C5=O)nc4n3CC3CC3)c(C)n12` [Example 148, ~{N}-[(1~{R})-1-[2-[7-[(1~{R},2~{R},4~{S})-2-amino-7-azabicyclo[2.2.1]heptane-7-carbonyl]-5-methoxy-3-methylimidazo [1,2-a]pyridin-2-yl]-1-(cyclopropylmethyl)pyrrolo [2,3-b]pyridin-6-yl]ethyl]-3-(4,4-dimethyl-2,5-dioxoimidazolidin-1-yl)propenamide] it is 56.2 nM.
The figure for `COc1cc(C(=O)N2CC[C@@H]3CCNC[C@@H]32)cc2nc(-c3cc4ccc(N(C(F)F)S(C)(=O)=O)nc4n3CC3CC3)c(C)n12` (single isomer, unassigned) [Example 417] is 7180 nM.
